For series [1], the system named is P388 murine leukemia cells. Description: MTT cytotoxicity test on P388 murine leukemia cells (Table 1). The format is cell-based. To be noted: 3 days. The method, then: P388 murine leukemia cells were spread over a 96-well microplate, 2.5×10^3 cells per well. A sample to be tested was added after 24 hours. Cells were cultivated under the conditions of 5% CO2 at 37° C. for 3 days. 3-(4,5-Dimethylthiazol-2-yl)-2,5-diphenyl-2H-tetrazolium bromide (MTT) was added 4 hours after the addition of the sample. Upon the addition of […] of isopropyl alcohol containing 0.04N HCl the absorption at 540 nm was measured to determine IC50.

Series [2] relates to HOC-21 (Ovary). Description: In vitro anti-proliferative activity, HOC-21 (Table 2-2). The format is cell-based. The conditions noted are these: Homo sapiens, read-out: in vitro anti-proliferative activity (Gl50). The protocol: (§1) In vitro anti-proliferative activities of the drugs against 4 human and 1 murine cell lines were measured by the MTT assay (see page 11 of the parent specification) after 3 days incubation, and expressed as the doses required to inhibit growth of 50% cells cultivated (Gl50, ng/ml).

Series [3] has as its target T1, topoisomerase I (Mus musculus, UniProt Q04750).
T1 construct: Topoisomerase I was prepared from p388 mouse leukemia; endogenous in cells; host or cells: P388 mouse leukemia
T1 sequence (Q04750 1-767): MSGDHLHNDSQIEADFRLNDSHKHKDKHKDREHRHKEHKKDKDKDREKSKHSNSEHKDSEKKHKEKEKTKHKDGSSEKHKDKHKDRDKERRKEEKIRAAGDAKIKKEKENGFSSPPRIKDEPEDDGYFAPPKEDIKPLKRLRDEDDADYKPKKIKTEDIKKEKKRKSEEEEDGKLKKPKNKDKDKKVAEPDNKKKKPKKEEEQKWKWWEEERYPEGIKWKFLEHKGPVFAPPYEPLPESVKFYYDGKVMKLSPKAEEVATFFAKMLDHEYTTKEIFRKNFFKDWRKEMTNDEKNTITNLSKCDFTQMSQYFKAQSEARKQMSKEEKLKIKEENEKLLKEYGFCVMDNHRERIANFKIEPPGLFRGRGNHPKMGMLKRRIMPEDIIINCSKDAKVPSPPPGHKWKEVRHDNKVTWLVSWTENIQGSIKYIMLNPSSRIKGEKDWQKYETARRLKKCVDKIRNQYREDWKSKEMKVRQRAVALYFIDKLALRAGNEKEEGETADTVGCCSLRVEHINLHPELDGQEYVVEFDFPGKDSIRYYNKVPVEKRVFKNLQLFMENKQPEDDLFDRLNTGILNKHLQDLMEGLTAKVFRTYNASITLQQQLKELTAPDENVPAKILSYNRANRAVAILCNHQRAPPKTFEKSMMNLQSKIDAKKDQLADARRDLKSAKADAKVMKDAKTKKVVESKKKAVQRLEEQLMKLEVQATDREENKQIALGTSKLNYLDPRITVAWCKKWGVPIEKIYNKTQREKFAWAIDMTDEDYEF
Description: Topoisomerase I assay, relaxation of supercoiled SV40 DNA. The format is biochemical, p388 mouse leukemia. The protocol:
Topoisomerase I was prepared from p388 mouse leukemia. One unit (the minimum amount of full relaxation of 0.5 μg SV40 DNA) of topoisomerase I,
0.5 μl of the test compounds, and 0.5 μg of SV40 DNA were added sequentially to the reaction buffer. The reaction mixture (50 μl) was incubated for 10 min and 37° C. and analyzed by electrophoresis, the gel was stained with 0.05% ethydium bromide and photographed with UV light. The DNA was quantified using a densitometor. The inhibition rate of the topoisomerase activity was calculated as [formula] where Frt and Frc are ratios of relaxed DNA to total DNA treated with topoisomerase in the presence and absence of the test drug, respectively. Fr is the proportion of relaxed DNA in untreated DNA. The IC50 of each test drug was estimated from the dose-response.

Series [4] relates to MCF-7 (Breast). Description: In vitro anti-proliferative activity, MCF-7 (Table 2-2). The format is cell-based. The conditions noted are these: Homo sapiens, MCF7, 72 h, read-out: in vitro anti-proliferative activity (Gl50). The protocol:
as §1

For series [5], the system named is QG56 (human lung cancer cells). The series is described as follows: MTT method, activity on QG56 cells (Table 2-1). In kind it is cell-based. The conditions noted are these: QG-56, 72 h. The method, then:
(§2) See page 11 of the parent specification. In detail, p388 murine leukemia cells, MKN 28 (human stomach cancer cells), QG56 (human lung cancer cells) and HOC21 (human ovarian cancer cells) were provided. The cells were spread over a 96-well microplate, respectively, and a sample to be tested was added to each of them after 24 hours. Cells were cultivated under the conditions of 5% CO2 at 37° C. for 3 days.
(§3) 3-(4,5-Dimethylthiazol-2-yl)-2,5-diphenyl-2H-tetrazolium bromide (abbriviated as MTT) was added thereto 4 hours after the addition of the sample. Upon the addition of […] of isopropyl alcohol containing 0.04N HCl, the absorption at 540 nm was measured To determine IC50.

The test system of series [6] is QG90 (Lung). The series is described as follows: In vitro anti-proliferative activity, QG90 (Table 2-2). To be noted: Homo sapiens, QG-90, 72 h, read-out: in vitro anti-proliferative activity (Gl50). In kind it is cell-based. The method, then: as §1
For series [7], the system named is 4 human and 1 murine cell lines. Description: In vitro anti-proliferative activity, mean over the cell lines (Table 2-2). To be noted: read-out: in vitro anti-proliferative activity (Gl50), MEAN. In kind it is cell-based. The method, then:
as §1

Series [8] has as its system MKN28 (Stomach). Description: In vitro anti-proliferative activity, MKN28 (Table 2-2). In kind it is cell-based. To be noted: Homo sapiens, MKN-28, 72 h, read-out: in vitro anti-proliferative activity (Gl50). The method, then: as §1
The test system of series [9] is HOC21 (human ovarian cancer cells). The series is described as follows: MTT method, activity on HOC21 cells (Table 2-1). In kind it is cell-based. To be noted: HOC-21, 72 h. The method, then:
as §2, §3

For series [10], the system named is p388 (Mouse leukemia). Description: In vitro anti-proliferative activity, p388 (Table 2-2). In kind it is cell-based. To be noted: read-out: in vitro anti-proliferative activity (Gl50). The protocol:
as §1

For series [11], the system named is MKN 28 (human stomach cancer cells). Description: MTT method, activity on MKN28 cells (Table 2-1). In kind it is cell-based. The conditions noted are these: MKN-28, 72 h. The method, then:
as §2, §3

Series [12] deals with P388 murine leukemia cells. Description: MTT method, activity on p388 cells (Table 2-1). In kind it is cell-based. To be noted: Mus musculus. The method, then:
as §2, §3

Series [13] deals with Meth A fibrosarcoma. The series is described as follows: In vivo anti-tumor activity, Meth A fibrosarcoma in BALB/c mice (Table 3). To be noted: i.v.; for Death Nos.: qd×4; for Tumor cell anti-proliferative activity: qd×4 (days 5-8), day 14. The protocol:
In vivo anti-tumor activities of drugs were assayed with Meth A fibrosarcoma in BALB/c mice. Mice were treated intravenously with several doses of drugs on days 5, 6, 7, and 8 (qd×4) after hypodermic tumor implantation, and the weight of the tumor masses measured on day 14. The anti-tumor activities of drugs against the tumor were expressed as the relative tumor weight of controls (%).

Series [14] is described as follows: Acute toxicity in mice. The conditions noted are these: i.v., male BALB/c mice, survival on day 14, Probit method. In kind it is in vivo. The protocol: Groups of 5 male BALB/c mice were administered intravenously with several doses of drugs, and their survivals from death were recorded up to day 14. The 10 and 50% lethal doses (LD10 and LD50) were calculated form the survival rate on day 14 by the Probit method.

[15] abbreviates: 72 h, HOC-21 (Ovary), MTT, 3 days incubation.
Where [16] appears, read: MCF-7 (Breast), MTT, 3 days incubation.
[17] abbreviates: QG90 (Lung), MTT, 3 days incubation.
The mark [18] stands for this setting: MKN28 (Stomach), MTT, 3 days incubation.
Where [19] appears, read: 72 h, p388 (Mouse leukemia), MTT, 3 days incubation.

This note sets out measurements from patent publication US5637770A (priority 1991, dated 1997).

In brackets after ≈: the same amount, converted by molar mass. Where two headings read alike, the source gives them in different places.

`CC[C@@]1(O)C(=O)OCc2c1cc1n(c2=O)Cc2c-1nc1ccc(OC)c3c1c2CCC3N.Cl` (single isomer, unassigned) [Example 7 (Isomer B)]: the IC50 in series [1] (hydrochloride) was determined as 11.90 ng/mL.
On to `CC[C@@]1(O)C(=O)OCc2c1cc1n(c2=O)Cc2c-1nc1ccc(OC)c3c1c2CCC3N.Cl` (single isomer, unassigned) [Example 7 (Isomer A)], for which the IC50 in series [1] (Mus musculus, P388, 72 h, read-out: IC50) came out at 11.4 ng/mL.
The compound `CC[C@@]1(O)C(=O)OCc2c1cc1n(c2=O)Cc2c-1nc1ccc(OC)c3c1c2C(N)CC3.Cl` (single isomer, unassigned) [Example 4 (Isomer B)] yielded an IC50 in [1] (hydrochloride) of 27.80 ng/mL.
For `CCc1c2c(nc3ccc(O)cc13)-c1cc3c(c(=O)n1C2)COC(=O)[C@]3(O)CC` [SN-38, 7Ethyl-10-hydroxycamptothecin], the IC50 in series [2] (setting [15]) was 21.4 ng/mL (≈ 0.0544 µM); in series [3] (SV40 DNA, 10 min, 37° C., read-out: Inhibition of topoisomerase I-induced relaxation of supercoiled DNA (IC50) (converted)), 3570 nM; in series [4] (setting [16]), 0.49 ng/mL (≈ 0.00125 µM); in series [5] (QG56, MTT, 3 days, read-out: IC50) it was 2.46 ng/mL (≈ 0.00627 µM); in series [6] (setting [17]) it was 1.43 ng/mL (≈ 0.00364 µM); in series [7] (mean of the 5 cell lines) it was 9.63 ng/mL (≈ 0.0245 µM). The IC50 in series [8] (setting [18]) came out at 21.7 ng/mL (≈ 0.0552 µM); in series [9] (HOC21, MTT, 3 days, read-out: IC50), 53.2 ng/mL (≈ 0.136 µM); in series [10] (setting [19]), 3.22 ng/mL (≈ 0.00821 µM); in [11] (MKN28, MTT, 3 days, read-out: IC50), 61 ng/mL (≈ 0.155 µM); in series [12] (72 h, p388, MTT, 3 days, read-out: IC50) it was 1.33 ng/mL (≈ 0.00339 µM).
As to `CCc1c2c(nc3ccc(OC(=O)N4CCC(N5CCCCC5)CC4)cc13)-c1cc3c(c(=O)n1C2)COC(=O)[C@]3(O)CC` [CPT-11, irinotecan], the IC50 in series [2] (setting [15]) is 15100 ng/mL (≈ 25.7 µM); in series [4] (setting [16]), 1200 ng/mL (≈ 2.04 µM); in series [6] (setting [17]), 1550 ng/mL (≈ 2.65 µM); in series [7] (mean of the 5 cell lines) it was 5870 ng/mL (≈ 10 µM); in series [8] (setting [18]), 8690 ng/mL (≈ 14.8 µM); in series [10] (setting [19]) it was 2850 ng/mL (≈ 4.86 µM). The “Death Nos.” value in [13] (total dose 25 mg/kg), in series [13] (total dose 50 mg/kg), in series [13] (total dose 100 mg/kg) and in series [13] (total dose 200 mg/kg) was 0/6 each time. In addition, the “Tumor cell anti-proliferative activity” value in series [13] (total dose 25 mg/kg) turned out to be 31.4%; in [13] (total dose 50 mg/kg), 53.3%; in series [13] (total dose 100 mg/kg), 62.3%; in [13] (total dose 200 mg/kg), 79.4%. The compound further showed an LD10 in [14] of 198 mg/m^2. For the same compound, the LD50 in [14] is on record as 270 mg/m^2.
Take `CC[C@@]1(O)C(=O)OCc2c1cc1n(c2=O)Cc2c-1nc1ccc(OC)c3c1c2C(N)CC3.Cl` (single isomer, unassigned) [Example 4 (Isomer A)]: the IC50 in series [1] (hydrochloride) was 9.21 ng/mL.
`CC[C@@]1(O)C(=O)OCc2c1cc1n(c2=O)Cc2c-1nc1cccc3c1c2C(N)CC3.Cl` (single isomer, unassigned) [Example 2 (Isomer A)] came in with an IC50 in [1] (hydrochloride) of 3.38 ng/mL.
`CC[C@@]1(O)C(=O)OCc2c1cc1n(c2=O)Cc2c-1nc1cc(F)c(C)c3c1c2C(N)CC3.Cl` (stereo partly drawn) [DX-8951, (9S)-1-amino-9-ethyl-5-fluoro-2,3-dihydro-9-hydroxy-4-methyl-1H,12H-benzo[de]pyrano[3',4':6,7]indolizino[1,2-b]quinoline-10,13(9H,15H)-dione hydrochloride]: the IC50 in series [2] (HOC-21, 72 h) is 3.67 ng/mL; in [3], 1120 nM; in series [4], 0.16 ng/mL; in series [5], 0.67 ng/mL; in [6], 0.66 ng/mL; in series [7] it was 1.46 ng/mL. The IC50 amounted to 1.75 ng/mL in series [8]; 12.8 ng/mL in series [9]; 1.06 ng/mL in series [10] (Mus musculus, P388, 72 h); 9.4 ng/mL in series [11]; 0.58 ng/mL in [12] (P388, 72 h). Also, the “Death Nos.” value is reported as 0/6 in [13] (total dose 1.875 mg/kg); 0/6 in series [13] (total dose 3.75 mg/kg); 0/6 in series [13] (total dose 7.5 mg/kg); 0/6 in series [13] (total dose 15 mg/kg); 2/6 in series [13] (total dose 30 mg/kg). Also, the “Tumor cell anti-proliferative activity” value in [13] (total dose 1.875 mg/kg) stood at 72.5%; in series [13] (total dose 3.75 mg/kg), 78.3%; in series [13] (total dose 7.5 mg/kg) it was 87.5%; in series [13] (total dose 15 mg/kg) it was 96.6%; in [13] (total dose 30 mg/kg), 96.4%. Further, the LD10 in [14] amounted to 228 mg/m^2. In [14], this compound yielded an LD50 of 270 mg/m^2.
Compound `CC[C@@]1(O)C(=O)OCc2c1cc1n(c2=O)Cc2c-1nc1cccc3c1c2C(N)CC3.Cl` (single isomer, unassigned) [Example 2 (Isomer B)] showed an IC50 in series [1] (hydrochloride) of 12.40 ng/mL.
